pIC50: −log10 of the molar value.
Experiments:
K-562R = experiment: Antiproliferative activity against human K-562R cells expressing Bcr-Abl T315I mutant assessed as inhibition of cell growth incubated for 48 hrs by MTT assay; format: functional, cell-based
Bcr/Abl fusion protein [1] = biological target: Bcr/Abl fusion protein (Homo sapiens, UniProt P00519, T315I); experiment: Inhibition of Bcr-Abl T315I mutant (unknown origin) incubated for 1 hr in presence of ATP by ADP-Glo kinase assay; format: protein assay
BaF3 [2] = experiment: Antiproliferative activity against mouse BaF3 cells expressing Bcr-Abl T315I mutant assessed as inhibition of cell growth at 30 uM incubated for 72 hrs by CellTiter-Glo luminescent assay; format: functional
Bcr/Abl fusion protein [3] = biological target: Bcr/Abl fusion protein (Homo sapiens, UniProt P00519); experiment: Inhibition of wild type Bcr-Abl (unknown origin) incubated for 1 hr in presence of ATP by ADP-Glo kinase assay; format: protein assay
K562 = experiment: Antiproliferative activity against human K562 cells assessed as inhibition of cell growth incubated for 48 hrs by MTT assay; format: functional, cell-based; conditions: K562, 48 h
K562/Adr = experiment: Antiproliferative activity against human Adriamycin-resistant K562/Adr cells assessed as inhibition of cell growth incubated for 48 hrs by MTT assay; format: functional, cell-based
BaF3 [4] = experiment: Antiproliferative activity against mouse BaF3 cells expressing wild type Bcr-Abl assessed as inhibition of cell growth incubated for 72 hrs by CellTiter-Glo luminescent assay; format: functional, cell-based; conditions: BaF3, 72 h
BaF3 [5] = experiment: Antiproliferative activity against mouse BaF3 cells assessed as inhibition of cell growth incubated for 72 hrs by CellTiter-Glo luminescent assay; format: functional, cell-based; conditions: BaF3, 72 h

| pIC50 (K-562R) | pIC50 (Bcr/Abl fusion protein [1]) | pIC50 (Bcr/Abl fusion protein [3]) | pIC50 (K562) | pIC50 (K562/Adr) | pIC50 (BaF3 [4]) | pIC50 (BaF3 [5]) | Compound | inhibition at 30 µM (BaF3 [2]) [%] |
| --- | --- | --- | --- | --- | --- | --- | --- | --- |
| 7.10 | – | – | – | – | – | – | Cc1ccc(C(=O)Nc2ccc(CN3CCN(C)CC3)c(C(F)(F)F)c2)cc1C#Cc1cnc2cccnn12 [PONATINIB] | – |
| – | 6.87 | 8.50 | 5.68 | 5.91 | – | – | CC(=O)Nc1n[nH]c2cc(-c3cn([C@@H]4CN[C@H](C(=O)Nc5ccc(Cl)cc5Cl)C4)nn3)ccc12 | 25.5 |
| 4.03 | – | – | 5.96 | 4.87 | 6.64 | 5.00 | Cc1ccc(NC(=O)c2ccc(CN3CCN(C)CC3)cc2)cc1Nc1nccc(-c2cccnc2)n1 [IMATINIB] | – |
